ChEMBL document CHEMBL4002566, “S-substituted 3,5-dinitrophenyl 1,3,4-oxadiazole-2-thiols and tetrazole-5-thiols as highly efficient antitubercular agents” (Eur J Med Chem, 2017)

Legend:
[1] = test system: Mycobacterium avium; test: Antimycobacterial activity against Mycobacterium avium CNCTC My 330/88 after 21 days by micromethod; type: functional; settings: CNCTC My 330/88, 504 h
[2] = test system: Mycobacterium tuberculosis; test: Antimycobacterial activity against Mycobacterium tuberculosis CNCTC My 331/88 after 14 days by micromethod; type: functional; settings: CNCTC My 331/88, 336 h
[3] = test system: Mycobacterium avium; test: Antimycobacterial activity against Mycobacterium avium CNCTC My 330/88 after 14 days by micromethod; type: functional; settings: CNCTC My 330/88, 336 h
[4] = test system: Mycobacterium kansasii; test: Antimycobacterial activity against Mycobacterium kansasii CNCTC My 235/80 after 14 days by micromethod; type: functional; settings: CNCTC My 235/80, 336 h
[5] = test system: Mycobacterium kansasii; test: Antimycobacterial activity against Mycobacterium kansasii 6509/96 clinical isolate after 14 days by micromethod; type: functional; settings: 6509/96, 336 h
[6] = test system: Candida albicans; test: Antifungal activity against Candida albicans ATCC 44859 after 24 hrs by broth microdilution method; type: functional; settings: ATCC 44859, 24 h
[7] = test system: Candida albicans; test: Antifungal activity against Candida albicans ATCC 44859 after 48 hrs by broth microdilution method; type: functional; settings: ATCC 44859, 48 h
[8] = test system: Candida tropicalis; test: Antifungal activity against Candida tropicalis 156 after 24 hrs by broth microdilution method; type: functional; settings: Candida tropicalis, 156, 24 h
[9] = test system: Candida tropicalis; test: Antifungal activity against Candida tropicalis 156 after 48 hrs by broth microdilution method; type: functional; settings: Candida tropicalis, 156, 48 h
[10] = test system: Pichia kudriavzevii; test: Antifungal activity against Candida krusei E28 after 24 hrs by broth microdilution method; type: functional; settings: E28, 24 h
[11] = test system: Pichia kudriavzevii; test: Antifungal activity against Candida krusei E28 after 48 hrs by broth microdilution method; type: functional; settings: E28, 48 h
[12] = test system: Nakaseomyces glabratus; test: Antifungal activity against Candida glabrata 20/I after 24 hrs by broth microdilution method; type: functional
[13] = test system: Nakaseomyces glabratus; test: Antifungal activity against Candida glabrata 20/I after 48 hrs by broth microdilution method; type: functional
[14] = test system: Trichosporon asahii; test: Antifungal activity against Trichosporon asahii 1188 after 24 hrs by broth microdilution method; type: functional; settings: Trichosporon asahii, 1188, 24 h
[15] = test system: Trichosporon asahii; test: Antifungal activity against Trichosporon asahii 1188 after 48 hrs by broth microdilution method; type: functional; settings: Trichosporon asahii, 1188, 48 h
[16] = test system: Aspergillus fumigatus; test: Antifungal activity against Aspergillus fumigatus 231 after 24 hrs by broth microdilution method; type: functional; settings: Aspergillus fumigatus, 231, 24 h
[17] = test system: Aspergillus fumigatus; test: Antifungal activity against Aspergillus fumigatus 231 after 48 hrs by broth microdilution method; type: functional; settings: Aspergillus fumigatus, 231, 48 h
[18] = test system: Lichtheimia corymbifera; test: Antifungal activity against Absidia corymbifera 272 after 24 hrs by broth microdilution method; type: functional; settings: Lichtheimia corymbifera, 272, 24 h
[19] = test system: Lichtheimia corymbifera; test: Antifungal activity against Absidia corymbifera 272 after 48 hrs by broth microdilution method; type: functional; settings: Lichtheimia corymbifera, 272, 48 h
[20] = test system: Trichophyton mentagrophytes; test: Antifungal activity against Trichophyton mentagrophytes 445 after 72 hrs by broth microdilution method; type: functional; settings: Trichophyton mentagrophytes, 445, 72 h
[21] = test system: Trichophyton mentagrophytes; test: Antifungal activity against Trichophyton mentagrophytes 445 after 120 hrs by broth microdilution method; type: functional; settings: Trichophyton mentagrophytes, 445, 120 h
[22] = test system: Staphylococcus aureus; test: Antibacterial activity against Staphylococcus aureus ATCC 6538 after 24 hrs by broth microdilution method; type: functional; settings: ATCC 6538, 24 h
[23] = test system: Staphylococcus aureus; test: Antibacterial activity against Staphylococcus aureus ATCC 6538 after 48 hrs by broth microdilution method; type: functional; settings: ATCC 6538, 48 h
[24] = test system: Staphylococcus aureus; test: Antibacterial activity against methicillin-resistant Staphylococcus aureus HK5996/08 after 24 hrs by broth microdilution method; type: functional; settings: HK5996/08, 24 h
[25] = test system: Staphylococcus aureus; test: Antibacterial activity against methicillin-resistant Staphylococcus aureus HK5996/08 after 48 hrs by broth microdilution method; type: functional; settings: HK5996/08, 48 h
[26] = test system: Staphylococcus epidermidis; test: Antibacterial activity against Staphylococcus epidermidis HK6996/08 after 24 hrs by broth microdilution method; type: functional; settings: HK6996/08, 24 h
[27] = test system: Staphylococcus epidermidis; test: Antibacterial activity against Staphylococcus epidermidis HK6996/08 after 48 hrs by broth microdilution method; type: functional; settings: HK6996/08, 48 h
[28] = test system: Enterococcus sp.; test: Antibacterial activity against Enterococcus sp. HK14365/08 after 24 hrs by broth microdilution method; type: functional; settings: HK14365/08, 24 h
[29] = test system: Enterococcus sp.; test: Antibacterial activity against Enterococcus sp. HK14365/08 after 48 hrs by broth microdilution method; type: functional; settings: HK14365/08, 48 h
[30] = test system: Escherichia coli; test: Antibacterial activity against Escherichia coli ATCC 8739 after 24 hrs by broth microdilution method; type: functional; settings: ATCC 8739, 24 h
[31] = test system: Escherichia coli; test: Antibacterial activity against Escherichia coli ATCC 8739 after 48 hrs by broth microdilution method; type: functional; settings: ATCC 8739, 48 h
[32] = test system: Klebsiella pneumoniae; test: Antibacterial activity against Klebsiella pneumoniae HK11750/08 after 24 hrs by broth microdilution method; type: functional; settings: HK11750/08, 24 h
[33] = test system: Klebsiella pneumoniae; test: Antibacterial activity against Klebsiella pneumoniae HK11750/08 after 48 hrs by broth microdilution method; type: functional; settings: HK11750/08, 48 h
[34] = test system: Klebsiella pneumoniae; test: Antibacterial activity against extended spectrum beta-lactamase producing Klebsiella pneumoniae HK14368/08 after 24 hrs by broth microdilution method; type: functional; settings: HK14368/08, 24 h
[35] = test system: Klebsiella pneumoniae; test: Antibacterial activity against extended spectrum beta-lactamase producing Klebsiella pneumoniae HK14368/08 after 48 hrs by broth microdilution method; type: functional; settings: HK14368/08, 48 h
[36] = test system: Pseudomonas aeruginosa; test: Antibacterial activity against Pseudomonas aeruginosa ATCC 9027 after 24 hrs by broth microdilution method; type: functional; settings: ATCC 9027, 24 h
[37] = test system: Pseudomonas aeruginosa; test: Antibacterial activity against Pseudomonas aeruginosa ATCC 9027 after 48 hrs by broth microdilution method; type: functional; settings: ATCC 9027, 48 h
[38] = Cytotoxicity against human HuH7 cells assessed as cell viability at 30 uM after 48 hrs by MTS assay relative to control; type: cell-based, Huh-7; settings: read-out: Activity
[39] = test system: Huh-7; test: Cytotoxicity against human HuH7 cells assessed as cell viability after 48 hrs by MTS assay; type: cell-based; settings: Huh-7, 48 h
[40] = test system: A-431; test: Cytotoxicity against human A431 cells assessed as cell viability after 48 hrs by MTS assay; type: cell-based; settings: A-431, 48 h
[41] = Cytotoxicity against human A431 cells assessed as cell viability at 30 uM after 48 hrs by MTS assay relative to control; type: cell-based, A-431; settings: read-out: Activity
[42] = test system: MDCK; test: Cytotoxicity against MDCK cells assessed as cell viability after 48 hrs by MTS assay; type: cell-based; settings: Canis lupus familiaris
[43] = Cytotoxicity against MDCK cells assessed as cell viability at 30 uM after 48 hrs by MTS assay relative to control; type: cell-based, Canis lupus familiaris; settings: dog, read-out: Activity
[44] = test system: HepG2; test: Cytotoxicity against human HepG2 cells assessed as cell viability after 48 hrs by MTS assay; type: cell-based; settings: HepG2, 48 h
[45] = Cytotoxicity against human HepG2 cells assessed as cell viability at 30 uM after 48 hrs by MTS assay relative to control; type: cell-based; settings: read-out: Activity
[46] = Selectivity index, ratio of IC50 for human HepG2 cells to MIC for Mycobacterium tuberculosis; type: toxicity; settings: read-out: Selectivity Index
[47] = test system: Mycobacterium tuberculosis; test: Antimycobacterial activity against Mycobacterium tuberculosis CNCTC My 331/88 after 21 days by micromethod; type: functional; settings: CNCTC My 331/88, 504 h
[48] = test system: Mycobacterium kansasii; test: Antimycobacterial activity against Mycobacterium kansasii CNCTC My 235/80 after 21 days by micromethod; type: functional; settings: CNCTC My 235/80, 504 h
[49] = test system: Mycobacterium kansasii; test: Antimycobacterial activity against Mycobacterium kansasii CNCTC My 235/80 after 7 days by micromethod; type: functional; settings: CNCTC My 235/80, 168 h
[50] = test system: Mycobacterium kansasii; test: Antimycobacterial activity against Mycobacterium kansasii 6509/96 clinical isolate after 21 days by micromethod; type: functional; settings: 6509/96, 504 h
[51] = test system: Mycobacterium kansasii; test: Antimycobacterial activity against Mycobacterium kansasii 6509/96 clinical isolate after 7 days by micromethod; type: functional; settings: 6509/96, 168 h

O=[N+]([O-])c1cc(-c2nnc(SCc3ccc(Br)cc3)o2)cc([N+](=O)[O-])c1
0.03 µM: MIC [2] | MIC [4] | MIC [5] | MIC [49] | MIC [51]
0.06 µM: MIC [47] | MIC [48] | MIC [50]
114%: viability at 48 h, 30 µM [43]
> 30 µM: IC50 [39] | IC50 [40] | IC50 [42] | IC50 [44]
113%: viability at 48 h, 30 µM [45]
> 125 µM: MIC [6] | MIC [7] | MIC [8] | MIC [9] | MIC [10] | MIC [11] | MIC [12] | MIC [13] | MIC [14] | MIC [15] | MIC [16] | MIC [17] | MIC [18] | MIC [19] | MIC [20] | MIC [21] | MIC [22] | MIC [23] | MIC [24] | MIC [25] | MIC [26] | MIC [27] | MIC [28] | MIC [29] | MIC [30] | MIC [31] | MIC [32] | MIC [33] | MIC [34] | MIC [35] | MIC [36] | MIC [37]
125 µM: MIC [1] | MIC [3]
99%: viability at 48 h, 30 µM [41]
143%: viability at 48 h, 30 µM [38]
> 1000: selectivity ratio [46]

COc1ccc(CSc2nnc(-c3cc([N+](=O)[O-])cc([N+](=O)[O-])c3)o2)cc1
> 30 µM: IC50 [39] | IC50 [40] | IC50 [42] | IC50 [44]
118%: viability at 48 h, 30 µM [38]
93%: viability at 48 h, 30 µM [41]
> 500 µM: MIC [6] | MIC [7] | MIC [8] | MIC [9] | MIC [10] | MIC [11] | MIC [12] | MIC [13] | MIC [14] | MIC [15] | MIC [16] | MIC [17] | MIC [18] | MIC [19] | MIC [20] | MIC [21] | MIC [22] | MIC [23] | MIC [24] | MIC [25] | MIC [26] | MIC [27] | MIC [28] | MIC [29] | MIC [30] | MIC [31] | MIC [32] | MIC [33] | MIC [34] | MIC [35] | MIC [36] | MIC [37]
0.125 µM: MIC [4] | MIC [48] | MIC [49] | MIC [51]
0.06 µM: MIC [47]
4 µM: MIC [1] | MIC [3]
126%: viability at 48 h, 30 µM [45]
0.25 µM: MIC [5] | MIC [50]
0.03 µM: MIC [2]
119%: viability at 48 h, 30 µM [43]
> 1000: selectivity ratio [46]
